How the values were obtained:
cancer cells = test: anticancer activity in vitro and in vivo by inoculation of cancer cells in SCID mice; parameters: species or system immunosuppressed SCID mice
Source text: The anticancer activity of DPPA was studied in vitro and in vivo by inoculation of cancer cells in immunosuppressed SCID mice. […] Moreover, even when the neuropathic pain, induced by the anticancer drugs was installed, DPPA antagonized it, by inhibition of the hypersensitive neurons injured by the neurotoxicity of the above anticancer drugs.

Aβ25-35 induced amnesia = test: amyloid Aβ25-35 induced amnesia (Y-maze and step-through); format: in vivo, mice
Source text: Indeed, concerning the cytodegenerative diseases and more specifically the neurodegenerative diseases (Alzheimer, Huntington, Parkinson or Multiple Sclerosis), DPPA, in contrast to the symptomatic treatments used currently against the above diseases, antagonizes their pathophysiological causes ie., the endocellular biochemical stress and, concerning the neurons, also their fatal entry in the cell cycle. Of particular interest was the action of DPPA when it was coadministered with the inhibitors of the acetylcholinesterases (IAChEases) which are used as symptomatic drugs (principally Rivastigmine, Donepezil and Galantamine) against the Alzheimer's Disease (AD). […] Indeed, DPPA, via its antagonistic action on the M2 muscatinic autoreceptors of the brain cholinergic neurons (M2[−]), abolished the pro-neurodegenerative agonistic activity of the IAChEases on the hyperactivated (by AD or by the soluble Aβ25-35) cerebral M2 muscarinic autoreceptors, originating a new pharmacological approach (M2[−]) and (σ1[+]) against the neurodegenerative effects of Aβ25-35 in AD and also against the deleterious effect of the agonistic action of IAChEases on the M2 muscarinic brain autoreceptors, validating these drugs (IAChEases) as putative therapeutic agents against AD.

sigma-1 receptors = sigma-1 receptors (Homo sapiens, UniProt Q99720); test: binding to sigma-1 receptors; settings: read-out: median concentrations of binding (IC50) for sigma-1 receptors
Sequence of sigma-1 receptors (Q99720 whole entry): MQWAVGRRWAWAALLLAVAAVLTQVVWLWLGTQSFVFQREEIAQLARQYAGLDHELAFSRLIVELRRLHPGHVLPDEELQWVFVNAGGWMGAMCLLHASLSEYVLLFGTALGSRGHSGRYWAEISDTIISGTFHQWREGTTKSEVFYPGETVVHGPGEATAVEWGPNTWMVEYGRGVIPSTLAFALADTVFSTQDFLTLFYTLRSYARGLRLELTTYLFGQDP

[1] = antagonism of pentylenetetrazole (PTZ) lethality in mice; format: in vivo; settings: PTZ 130 mg/kg ip, DPPA 3 mg/kg po
Method: (§1) More important- at lower doses: 0,01 to 1,00 mg/kg, intraperitoneal (ip) in mice—the cytoprotective activity of DPPA obtained by antagonism of the endoplasmic reticulum stress (ER stress) and amelioration of the cytoprotective autophagic processus of the cells and, more specifically, of neurons (in the neurodegenerative diseases and eldery). […] These cytoprotective activities of DPPA were completed, specifically in neurons, by inhibiting their entry in the cell cycle, as this entry is always fatal for neurons. In contrast, concerning the cancer cells, the above inhibition triggered the apoptotic processus and their death.

[2] = system: mitochondrial toxicity of pentylenetetrazole (PTZ); test: as above; format: in vivo; settings: PTZ 130 mg/kg ip
Method: as §1

[3] = system: site-2 of the sodium channels; test: affinity for site-2 of the sodium channels; format: binding
M3 muscarinic receptors = target: T1, M3 muscarinic receptors (Mus musculus, UniProt Q9ERZ3); test: peripheral M3 muscarinic antagonism in mice; format: in vivo; settings: 0.1 to 10 mg/kg, ip
T1 construct: from tissue; host or cells: living mice, peripheral tissues
T1 sequence (Q9ERZ3 whole entry): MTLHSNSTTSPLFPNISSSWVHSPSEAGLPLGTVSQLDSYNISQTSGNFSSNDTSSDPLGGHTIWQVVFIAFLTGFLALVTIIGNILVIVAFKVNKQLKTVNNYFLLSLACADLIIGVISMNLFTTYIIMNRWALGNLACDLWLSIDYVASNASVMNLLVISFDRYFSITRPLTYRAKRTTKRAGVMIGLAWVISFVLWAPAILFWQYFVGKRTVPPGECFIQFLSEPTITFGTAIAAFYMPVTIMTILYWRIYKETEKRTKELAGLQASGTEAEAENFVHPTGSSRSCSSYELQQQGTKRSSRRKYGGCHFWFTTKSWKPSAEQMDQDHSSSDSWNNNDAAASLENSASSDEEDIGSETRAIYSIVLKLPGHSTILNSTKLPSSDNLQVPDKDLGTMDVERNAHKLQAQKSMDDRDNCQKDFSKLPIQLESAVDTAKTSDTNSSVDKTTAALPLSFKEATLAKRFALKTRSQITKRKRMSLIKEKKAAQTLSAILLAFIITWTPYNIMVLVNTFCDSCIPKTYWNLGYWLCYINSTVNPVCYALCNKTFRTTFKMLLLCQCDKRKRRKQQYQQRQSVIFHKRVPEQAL

[4] = system: Paclitaxel-induced neuropathic pain; test: neuropathic pain by sensibilisation with Paclitaxel, formalin injection in hind paw; format: in vivo; settings: po, mice
Method: Finally, in the experimental protocol of neuropathic pain by sensibilisation with Paclitaxel and evaluation of the neuropathic pain by injection of formalin in the hind paw of mice, the analgesic effect of DPPA was significative from 1.0 mg/kg (po) and was spectacular at higher doses (25 to 75 mg/kg, po). Indeed, the Paclitaxel+DPPA treated mice were less sensible to formalin than the control mice not treated with Paclitaxel.

[5] = system: dizocilpine induced amnesia; test: dizocilpine induced amnesia; format: in vivo; settings: mice
sigma-2 receptors = sigma-2 receptors (Homo sapiens, UniProt Q5BJF2); test: binding to sigma-2 receptors; settings: read-out: median concentrations of binding (IC50) for sigma-2 receptors
Sequence of sigma-2 receptors (Q5BJF2 whole entry): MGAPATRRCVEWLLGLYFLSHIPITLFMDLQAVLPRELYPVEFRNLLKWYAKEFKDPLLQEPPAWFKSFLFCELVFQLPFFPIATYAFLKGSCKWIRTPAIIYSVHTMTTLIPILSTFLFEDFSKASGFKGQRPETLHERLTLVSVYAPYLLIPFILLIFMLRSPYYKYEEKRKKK

M2 muscarinic receptors = target: T2, M2 muscarinic receptors (Mus musculus, UniProt Q9ERZ4); test: peripheral M2 muscarinic antagonism in mice; format: in vivo; settings: 0.1 to 10 mg/kg, ip
T2 construct: from tissue; host or cells: living mice, peripheral tissues
T2 sequence (Q9ERZ4 1-466): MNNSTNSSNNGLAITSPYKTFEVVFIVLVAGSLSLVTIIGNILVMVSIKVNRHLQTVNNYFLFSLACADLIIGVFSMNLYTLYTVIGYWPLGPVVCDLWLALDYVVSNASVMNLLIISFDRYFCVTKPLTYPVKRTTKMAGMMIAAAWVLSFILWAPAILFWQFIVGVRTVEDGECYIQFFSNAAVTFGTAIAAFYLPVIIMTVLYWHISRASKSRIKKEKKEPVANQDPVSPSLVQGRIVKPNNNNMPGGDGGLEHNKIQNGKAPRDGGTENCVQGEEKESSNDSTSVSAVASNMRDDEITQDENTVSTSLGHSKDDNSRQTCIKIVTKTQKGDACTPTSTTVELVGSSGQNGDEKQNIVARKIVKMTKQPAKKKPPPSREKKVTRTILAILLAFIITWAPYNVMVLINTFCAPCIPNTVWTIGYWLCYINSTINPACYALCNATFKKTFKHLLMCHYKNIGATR

[6] = system: immobility in forced swimming; settings: po, mice, Porsolt; cited from earlier work
[7] = system: colon, prostate, ovarian, pancreas and hepatic cancer cells; test: in vitro anticancer activity; format: cell-based
[8] = system: scopolamine induced amnesia; test: scopolamine induced amnesia; format: in vivo; settings: mice

## CC(NCCC(c1ccccc1)c1ccccc1)c1ccccc1 (centres unmarked) [DPPA, 3,3-diphenyl-N-(1-phenylethyl) propan-1-amine]
Cancer cells
  anticancer activity versus clinically used anticancer drugs: lower than those of the clinically used anticancer drugs
Aβ25-35 induced amnesia; intracerebral soluble Aβ25-35, mice, Y-maze and step-through
  antiamnesic action on coadministration with IAChEases (Rivastigmine or Donepezil): higher than the sum of the antiamnesic effects of DPPA and IAChEases
Aβ25-35 induced amnesia; mice
  antagonism of amyloids Aβ25-35 induced amnesia: antagonism
sigma-1 receptors
  IC50: 14 to 18 nM
[1]
  increase of the latency of lethality of PTZ: 5 fold
[2]; DPPA 10 mg/kg po
  increase of the latency of lethality of PTZ: 10 fold
[2]; DPPA 30 mg/kg po
  increase of the latency of lethality of PTZ: 20 fold
[3]
  IC50: 290 nM
M3 muscarinic receptors
  effects on M3 muscarinic receptors in the periphery: antagonistic effects
[4]; 25 to 75 mg/kg
  analgesic effect at higher doses: spectacular
[4]; Paclitaxel sensibilisation, formalin in hind paw
  dose from which the analgesic effect was significative: ≥ 1.0 mg/kg
[5]
  antagonism of dizocilpine induced amnesia: antagonism
sigma-2 receptors
  IC50: 730 to 850 nM
M2 muscarinic receptors
  effects on M2 muscarinic receptors in the periphery: antagonistic effects
[6]
  dose at which anti-immobility properties are significative: more than 10 mg/kg
[7]
  anticancer activity on cancer cells in vitro: demonstrated the anticancer activity
[8]
  antagonism of scopolamine induced amnesia: antagonism
